This note sets out measurements from patent US5676931A, “Aerosol drug formulations for use with non CFC propellants” (Abbott Laboratories, priority 1996, dated 1997).

This data set can be described thus: Biodistribution of SLS MDI formulation: drug concentrations in lung and blood (Table 5). The class given is in vivo, male Sprague-Dawley rats. As to conditions: rats. As for the experimental part: A SLS (sodium lauryl sulfate) MDI formulation was tested in the following biodistribution study. One group of 13 male Sprague-Dawley rats, weighing 400 to 500 grams was used. This group of animals was dosed with a sodium lauryl sulfate-based R(+)-N-[3-[5-(4-fluorophenoxy)-2-furanyl]-1-methyl-2-propynyl]-N-hydroxyurea MDI formulation. Blood samples were collected at 0.083, 0.25, 0.5, 1, 2, 4 and 6 hours after dosing. One animal in each group was sacrificed at 0.25, 0.5, 1, 2, 4 and 6 hours after dosing for the determination of drug concentrations in the lung.

SMILES strings stand for the structures. Read-outs that look alike come from different tables or passages of the source.

Consider `C[C@H](C#Cc1ccc(Oc2ccc(F)cc2)o1)N(O)C(N)=O` [R(+)-N-[3-[5-(4-fluorophenoxy)-2-furanyl]-1-methyl-2-propynyl]-N-hydroxyurea], for which, for the setting “MDI formulations in HFA-134a”, the reproducibility of delivery result is on record as “reproducibly delivered”. Moreover, where the note is “SLS MDI, lung, time 0 hr, footnote c”, the “fraction of theoretically delivered drug (lung)” value came to 26.7%. For the same compound, the “drug concentration recovered from the lung following delivery” value (SLS-based MDI) is on record as “about 67 μg/g”. This compound returned a concentration at 0.083 h (rat, blood, inhaled or intranasal, SLS MDI 10 mg/mL drug, 0.3% SLS in HFA134a, 0.083 hr (n = 12)) of 0.11 ± 0.08 µg/mL. In addition, the concentration at 0.25 h came out at 0.14 ± 0.07 µg/mL (rat, blood, inhaled or intranasal, SLS MDI 10 mg/mL drug, 0.3% SLS in HFA134a, 0.25 hr (n = 12), read-out: Concentrations of Drug, Blood) and 14500 ± 6330 ng/g (rat, lung, inhaled or intranasal, SLS MDI 10 mg/mL drug, 0.3% SLS in HFA134a, 0.25 hr, read-out: Concentrations of Drug, Lung). Besides, the concentration at 0.5 h (rat, blood, inhaled or intranasal, SLS MDI 10 mg/mL drug, 0.3% SLS in HFA134a, 0.5 hr (n = 9), read-out: Concentrations of Drug, Blood) came to 0.18 ± 0.08 µg/mL and the concentration at 0.5 h (rat, lung, inhaled or intranasal, SLS MDI 10 mg/mL drug, 0.3% SLS in HFA134a, 0.5 hr, read-out: Concentrations of Drug, Lung) was 12100 ± 4720 ng/g. Besides, the concentration at 1 h came out at 0.18 ± 0.06 µg/mL (rat, blood, inhaled or intranasal, SLS MDI 10 mg/mL drug, 0.3% SLS in HFA134a, 1.0 hr (n = 8), read-out: Concentrations of Drug, Blood) and 13100 ± 15700 ng/g (rat, lung, inhaled or intranasal, SLS MDI 10 mg/mL drug, 0.3% SLS in HFA134a, 1.0 hr, read-out: Concentrations of Drug, Lung). The concentration at 2 h by setting is: (rat, blood, inhaled or intranasal, SLS MDI 10 mg/mL drug, 0.3% SLS in HFA134a, 2.0 hr (n = 6), read-out: Concentrations of Drug, Blood) 0.15 ± 0.06 µg/mL; (rat, lung, inhaled or intranasal, SLS MDI 10 mg/mL drug, 0.3% SLS in HFA134a, 2.0 hr, read-out: Concentrations of Drug, Lung) 16600 ± 13000 ng/g. Also, the concentration at 4 h (rat, blood, inhaled or intranasal, SLS MDI 10 mg/mL drug, 0.3% SLS in HFA134a, 4.0 hr (n = 4), read-out: Concentrations of Drug, Blood) came to 0.2 ± 0.04 µg/mL and the concentration at 4 h (rat, lung, inhaled or intranasal, SLS MDI 10 mg/mL drug, 0.3% SLS in HFA134a, 4.0 hr, read-out: Concentrations of Drug, Lung) amounted to 8540 ± 3100 ng/g. The concentration at 6 h is, setting by setting: (rat, blood, inhaled or intranasal, SLS MDI 10 mg/mL drug, 0.3% SLS in HFA134a, 6.0 hr (n = 2), read-out: Concentrations of Drug, Blood) 0.28 ± 0.27 µg/mL; (rat, lung, inhaled or intranasal, SLS MDI 10 mg/mL drug, 0.3% SLS in HFA134a, 6.0 hr, read-out: Concentrations of Drug, Lung) 9850 ± 2910 ng/g. For the same compound, under “SLS MDI 10 mg/mL drug, 0.3% SLS in HFA134a, 0 hr”, the “Concentrations of Drug, Lung” value was 66.74 µg/g.
